Measured values published in ChEMBL document CHEMBL1944593, “Heteroaromatic-aminomethyl quinolones: potent and selective iNOS inhibitors” (Bioorg Med Chem Lett, 2012).

What was measured:
[1] = biological target: Nitric oxide synthase, inducible (Homo sapiens, UniProt P35228); assay: Inhibition of human iNOS expressed in HEK293 cells assessed as NO production by 2,3-diaminonapthalene-based fluorescence assay; format: cell-based
[2] = biological target: Nitric oxide synthase 1 (Homo sapiens, UniProt P29475); assay: Inhibition of human nNOS expressed in HEK293 cells assessed as NO production by 2,3-diaminonapthalene-based fluorescence assay; format: cell-based
[3] = biological target: T1, Nitric oxide synthase 3 (Homo sapiens, UniProt P29474); assay: Inhibition of human eNOS expressed in HEK293 cells assessed as NO production by 2,3-diaminonapthalene-based fluorescence assay; format: cell-based
T1 sequence (P29474 whole entry): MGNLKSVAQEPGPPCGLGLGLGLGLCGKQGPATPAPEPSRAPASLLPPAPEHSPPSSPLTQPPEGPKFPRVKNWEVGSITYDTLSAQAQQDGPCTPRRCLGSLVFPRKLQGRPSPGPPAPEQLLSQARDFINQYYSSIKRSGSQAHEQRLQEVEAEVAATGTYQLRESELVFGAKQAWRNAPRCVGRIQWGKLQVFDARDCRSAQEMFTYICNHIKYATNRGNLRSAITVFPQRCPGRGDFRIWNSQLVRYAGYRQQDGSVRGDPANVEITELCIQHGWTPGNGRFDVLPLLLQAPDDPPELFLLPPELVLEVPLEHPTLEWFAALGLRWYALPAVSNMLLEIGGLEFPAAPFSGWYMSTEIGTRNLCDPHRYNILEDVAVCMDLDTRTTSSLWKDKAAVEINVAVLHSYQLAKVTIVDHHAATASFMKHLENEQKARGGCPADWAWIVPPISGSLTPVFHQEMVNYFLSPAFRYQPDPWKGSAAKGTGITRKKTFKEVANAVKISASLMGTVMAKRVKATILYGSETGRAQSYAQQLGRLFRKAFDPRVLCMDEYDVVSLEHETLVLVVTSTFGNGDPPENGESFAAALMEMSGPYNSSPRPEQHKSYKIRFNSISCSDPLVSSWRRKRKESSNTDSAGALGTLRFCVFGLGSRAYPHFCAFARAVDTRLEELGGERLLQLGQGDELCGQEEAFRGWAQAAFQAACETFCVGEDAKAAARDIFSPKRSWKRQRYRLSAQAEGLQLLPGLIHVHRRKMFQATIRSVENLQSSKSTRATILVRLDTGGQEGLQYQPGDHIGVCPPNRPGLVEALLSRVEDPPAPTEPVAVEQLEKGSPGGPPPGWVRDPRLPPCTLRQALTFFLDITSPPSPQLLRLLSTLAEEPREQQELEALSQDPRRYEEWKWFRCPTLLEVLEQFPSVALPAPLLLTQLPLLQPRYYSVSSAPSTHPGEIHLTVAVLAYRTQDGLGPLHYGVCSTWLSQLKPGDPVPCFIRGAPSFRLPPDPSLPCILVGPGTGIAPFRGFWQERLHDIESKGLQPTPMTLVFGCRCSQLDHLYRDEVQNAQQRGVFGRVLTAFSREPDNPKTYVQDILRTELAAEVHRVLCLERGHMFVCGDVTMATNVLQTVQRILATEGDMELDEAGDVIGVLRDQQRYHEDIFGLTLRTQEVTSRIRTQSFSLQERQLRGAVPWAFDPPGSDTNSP

[4] = species on record: Homo sapiens; assay: Selectivity ratio of IC50 for human eNOS to IC50 for human iNOS
[5] = biological target: T2, Nitric oxide synthase 3 (Homo sapiens) (UniProt P29474); assay: Inhibition of human eNOS expressed in HEK293 cells assessed as NO production at 30 uM by 2,3-diaminonapthalene-based fluorescence assay; format: cell-based
T2 sequence (whole entry): T1 sequence (P29474 whole entry)

[6] = biological target: Nitric oxide sythases; iNOS & nNOS (Homo sapiens) (UniProt P29475+P35228); assay: Selectivity ratio of IC50 for human nNOS to IC50 for human iNOS
[7] = AUC in mouse at 10 mg/kg, po; format: ADME, organism-based; set-up: dose 10 mg/kg, route oral; conditions: plasma
[8] = Volume of distribution at steady state in mouse; format: ADME, organism-based; conditions: in vivo, read-out: Vdss
[9] = biological target: T3, Nitric oxide synthase, inducible (Mus musculus, UniProt P29477); assay: Inhibition of mouse iNOS
T3 sequence (P29477 whole entry): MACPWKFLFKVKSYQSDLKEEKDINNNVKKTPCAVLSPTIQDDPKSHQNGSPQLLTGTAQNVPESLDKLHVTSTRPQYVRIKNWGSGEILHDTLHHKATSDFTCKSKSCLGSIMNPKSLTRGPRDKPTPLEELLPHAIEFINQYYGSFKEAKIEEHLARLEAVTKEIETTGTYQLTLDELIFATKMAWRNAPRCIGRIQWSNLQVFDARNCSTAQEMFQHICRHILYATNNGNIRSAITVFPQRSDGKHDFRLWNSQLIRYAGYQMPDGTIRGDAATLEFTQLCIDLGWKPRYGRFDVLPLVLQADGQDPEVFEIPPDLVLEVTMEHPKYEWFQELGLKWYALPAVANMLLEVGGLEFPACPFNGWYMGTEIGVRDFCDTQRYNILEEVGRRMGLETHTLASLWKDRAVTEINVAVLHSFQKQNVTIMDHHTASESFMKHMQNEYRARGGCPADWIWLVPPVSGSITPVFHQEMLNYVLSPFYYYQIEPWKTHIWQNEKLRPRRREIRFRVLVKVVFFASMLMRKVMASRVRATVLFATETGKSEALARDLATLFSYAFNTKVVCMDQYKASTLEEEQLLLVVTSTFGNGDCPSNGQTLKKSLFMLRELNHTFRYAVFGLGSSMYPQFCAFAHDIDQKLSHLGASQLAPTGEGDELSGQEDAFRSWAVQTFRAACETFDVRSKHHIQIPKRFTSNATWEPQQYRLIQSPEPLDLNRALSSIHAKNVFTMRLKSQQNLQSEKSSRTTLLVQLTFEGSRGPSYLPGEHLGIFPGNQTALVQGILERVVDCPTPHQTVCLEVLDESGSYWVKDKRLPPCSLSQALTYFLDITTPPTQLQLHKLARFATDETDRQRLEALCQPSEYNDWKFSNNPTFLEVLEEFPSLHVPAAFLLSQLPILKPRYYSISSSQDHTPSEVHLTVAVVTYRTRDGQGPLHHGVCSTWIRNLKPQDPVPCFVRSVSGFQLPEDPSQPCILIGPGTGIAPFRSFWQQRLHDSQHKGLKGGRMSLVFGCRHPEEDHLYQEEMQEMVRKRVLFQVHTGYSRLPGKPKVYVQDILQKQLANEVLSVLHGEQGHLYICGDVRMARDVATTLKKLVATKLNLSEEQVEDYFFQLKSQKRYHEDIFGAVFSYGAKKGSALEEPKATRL

[10] = test system: Mus musculus; assay: Antiinflammatory activity in po dosed mouse assessed as reduction in LPS-induced nitatre level in plasma; format: functional
[11] = Half life in mouse liver microsomes; format: ADME, Microsome
[12] = test system: Mus musculus; assay: Antiinflammatory activity in mouse assessed as reduction in LPS-induced nitatre level in plasma at 30 mg/kg, po; format: functional; set-up: scale not given: the % may be the effect or the level left
[13] = Oral bioavailability in mouse at 10 mg/kg; format: ADME, organism-based; conditions: in vivo
[14] = Cmax in mouse at 10 mg/kg, po; format: ADME, organism-based; set-up: dose 10 mg/kg, route oral; conditions: in vivo
[15] = Plasma clearance in mouse; format: ADME, organism-based
[16] = Half life in mouse; format: ADME, organism-based; conditions: in vivo

Nitric oxide synthase, inducible (Homo sapiens, UniProt P35228), sequence (P35228 whole entry): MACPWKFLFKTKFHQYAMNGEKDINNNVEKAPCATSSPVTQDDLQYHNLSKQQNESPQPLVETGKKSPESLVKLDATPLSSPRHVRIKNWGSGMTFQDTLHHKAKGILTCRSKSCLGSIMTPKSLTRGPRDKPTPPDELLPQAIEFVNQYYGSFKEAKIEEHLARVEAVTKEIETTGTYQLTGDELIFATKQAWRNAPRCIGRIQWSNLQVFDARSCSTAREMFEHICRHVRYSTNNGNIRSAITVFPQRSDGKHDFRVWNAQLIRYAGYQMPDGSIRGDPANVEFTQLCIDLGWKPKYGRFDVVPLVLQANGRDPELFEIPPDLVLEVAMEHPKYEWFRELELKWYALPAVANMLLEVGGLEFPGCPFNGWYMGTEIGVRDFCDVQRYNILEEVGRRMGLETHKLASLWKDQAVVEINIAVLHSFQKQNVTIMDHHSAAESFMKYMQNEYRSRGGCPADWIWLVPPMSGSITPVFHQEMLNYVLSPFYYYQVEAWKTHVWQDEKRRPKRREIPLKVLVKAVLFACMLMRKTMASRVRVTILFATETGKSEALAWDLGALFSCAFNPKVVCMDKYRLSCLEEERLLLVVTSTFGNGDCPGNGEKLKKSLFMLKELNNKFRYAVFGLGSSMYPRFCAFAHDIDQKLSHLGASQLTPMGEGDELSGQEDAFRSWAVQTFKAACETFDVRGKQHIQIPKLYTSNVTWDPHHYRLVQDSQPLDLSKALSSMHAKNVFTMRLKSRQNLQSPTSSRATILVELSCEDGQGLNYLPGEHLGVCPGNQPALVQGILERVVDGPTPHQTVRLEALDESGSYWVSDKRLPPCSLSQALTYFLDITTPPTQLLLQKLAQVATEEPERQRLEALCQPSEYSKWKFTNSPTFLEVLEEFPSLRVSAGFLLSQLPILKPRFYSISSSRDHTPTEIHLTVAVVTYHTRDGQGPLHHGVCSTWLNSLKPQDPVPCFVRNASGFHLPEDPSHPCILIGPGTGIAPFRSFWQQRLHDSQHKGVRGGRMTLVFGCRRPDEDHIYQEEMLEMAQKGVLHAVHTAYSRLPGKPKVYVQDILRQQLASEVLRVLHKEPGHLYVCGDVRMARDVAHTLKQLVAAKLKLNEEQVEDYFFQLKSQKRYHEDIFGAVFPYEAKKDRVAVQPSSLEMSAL
Nitric oxide sythases; iNOS & nNOS (Homo sapiens), sequence (P29475 whole entry, looked up): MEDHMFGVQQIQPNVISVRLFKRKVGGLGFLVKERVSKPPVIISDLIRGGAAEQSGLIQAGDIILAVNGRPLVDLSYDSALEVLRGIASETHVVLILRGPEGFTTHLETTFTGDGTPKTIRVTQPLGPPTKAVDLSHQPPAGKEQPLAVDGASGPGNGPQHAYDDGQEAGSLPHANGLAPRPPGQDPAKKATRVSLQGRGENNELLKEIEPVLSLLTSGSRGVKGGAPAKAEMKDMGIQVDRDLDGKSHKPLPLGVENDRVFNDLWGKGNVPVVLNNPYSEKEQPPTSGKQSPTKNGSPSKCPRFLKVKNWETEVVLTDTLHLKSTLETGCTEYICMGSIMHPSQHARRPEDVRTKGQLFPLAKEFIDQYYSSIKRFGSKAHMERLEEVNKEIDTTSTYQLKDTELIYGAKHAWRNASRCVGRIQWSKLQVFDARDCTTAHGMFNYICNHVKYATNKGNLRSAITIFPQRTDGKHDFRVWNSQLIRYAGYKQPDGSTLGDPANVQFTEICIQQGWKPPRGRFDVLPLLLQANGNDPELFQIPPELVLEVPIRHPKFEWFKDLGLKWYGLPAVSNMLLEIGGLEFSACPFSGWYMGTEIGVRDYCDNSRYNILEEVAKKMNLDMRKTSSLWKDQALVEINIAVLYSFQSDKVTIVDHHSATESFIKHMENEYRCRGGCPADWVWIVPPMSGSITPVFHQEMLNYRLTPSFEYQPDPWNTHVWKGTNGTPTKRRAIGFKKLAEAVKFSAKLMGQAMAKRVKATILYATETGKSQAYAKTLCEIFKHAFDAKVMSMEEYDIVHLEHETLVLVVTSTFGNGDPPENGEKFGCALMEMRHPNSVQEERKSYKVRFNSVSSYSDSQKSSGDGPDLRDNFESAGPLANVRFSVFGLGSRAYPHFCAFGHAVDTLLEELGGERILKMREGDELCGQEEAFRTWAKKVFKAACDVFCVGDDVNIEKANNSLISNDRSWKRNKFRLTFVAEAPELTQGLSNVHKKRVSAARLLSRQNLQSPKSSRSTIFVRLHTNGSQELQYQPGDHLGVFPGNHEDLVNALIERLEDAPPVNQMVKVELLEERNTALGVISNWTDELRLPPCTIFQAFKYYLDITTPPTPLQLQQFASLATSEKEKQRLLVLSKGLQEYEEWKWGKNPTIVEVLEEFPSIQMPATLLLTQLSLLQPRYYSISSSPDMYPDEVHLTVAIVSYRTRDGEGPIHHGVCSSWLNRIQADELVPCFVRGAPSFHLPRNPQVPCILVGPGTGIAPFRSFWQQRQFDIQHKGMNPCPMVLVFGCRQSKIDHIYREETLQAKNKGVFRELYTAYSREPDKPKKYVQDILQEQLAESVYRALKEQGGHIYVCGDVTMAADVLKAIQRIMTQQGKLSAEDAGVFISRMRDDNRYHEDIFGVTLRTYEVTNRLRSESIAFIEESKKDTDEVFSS
Nitric oxide sythases; iNOS & nNOS (Homo sapiens), sequence (P35228 whole entry, looked up): as the sequence (P35228 whole entry) above
Nitric oxide synthase 1, sequence (P29475 whole entry): as the sequence (P29475 whole entry, looked up) above

| SMILES | IC50 [1] | IC50 [2] | IC50 [3] | Ratio IC50 [4] | Ratio IC50 [6] | further results |
| --- | --- | --- | --- | --- | --- | --- |
| CN(C)c1cc(N(Cc2cc(=O)[nH]c3c(F)c(F)ccc23)c2cccc(Cl)c2)ncn1 | 28 nM | 500 nM | > 30000 nM | > 1000 | 20 | inhibition [5]: < 50% |
| O=c1cc(CN(c2ccccc2)c2cccc(Cl)c2)c2ccc(F)c(F)c2[nH]1 | 1500 nM | – | > 30000 nM | > 20 | – | inhibition [5]: < 50% |
| O=c1cc(CN(c2cccnc2)c2cccc(Cl)c2)c2ccc(F)c(F)c2[nH]1 | 77 nM | 370 nM | 14000 nM | 180 | 5 | – |
| O=c1cc(Cn2c(C3CCC3)nc3nccnc32)c2ccc(F)c(F)c2[nH]1 | 91 nM | – | – | – | – | AUC [7]: 25000 ng·h/mL; Vd [8]: 0.4 L/kg; IC50 [9]: 500 nM; ED50 [10]: 1 mg/kg |
| COc1cc(N(Cc2cc(=O)[nH]c3c(F)c(F)ccc23)c2cccc(Cl)c2)ncn1 | 61 nM | 130 nM | > 30000 nM | > 500 | 2 | inhibition [5]: < 50% |
| Cc1cc(N(Cc2cc(=O)[nH]c3c(F)c(F)ccc23)c2cccc(Cl)c2)ncn1 | 53 nM | 160 nM | > 30000 nM | > 500 | 3 | inhibition [5]: < 50% |
| CN(C)c1nccc(N(Cc2cc(=O)[nH]c3c(F)c(F)ccc23)c2cccc(Cl)c2)n1 | 1300 nM | – | > 30000 nM | > 20 | – | inhibition [5]: < 50% |
| O=c1cc(CN(c2cncnc2)c2cccc(Cl)c2)c2ccc(F)c(F)c2[nH]1 | 210 nM | 1600 nM | 79000 nM | 375 | 8 | – |
| [O-][n+]1cc(CN(c2cccc(Cl)c2)c2ncccn2)c2ccc(F)c(F)c2c1 | 17 nM | – | – | > 1000 | 9 | – |
| O=c1cc(CN(Cc2ccccc2Cl)c2cnccn2)c2ccc(F)c(F)c2[nH]1 | 12 nM | 60 nM | 12000 nM | 1000 | 5 | – |
| O=c1cc(CN(c2ccncc2)c2cccc(Cl)c2)c2ccc(F)c(F)c2[nH]1 | 130 nM | 240 nM | 23000 nM | 170 | 2 | – |
| O=c1cc(CN(Cc2cccc(Cl)c2)c2cnccn2)c2ccc(F)c(F)c2[nH]1 | 220 nM | 330 nM | 8300 nM | 40 | 2 | half-life [11]: < 0.333 h |
| O=c1cc(CN(c2cccc(Cl)c2)c2ccccn2)c2ccc(F)c(F)c2[nH]1 | 31 nM | 170 nM | > 30000 nM | > 1000 | 5 | inhibition [5]: < 50% |
| Fc1ccc2c(CN(c3cccc(Cl)c3)c3ncccn3)cncc2c1F | 200 nM | – | – | > 1000 | – | – |
| Cn1ncc2c(N(Cc3cc(=O)[nH]c4c(F)c(F)ccc34)c3cccc(Cl)c3)ncnc21 | 11 nM | 62 nM | 8300 nM | 730 | – | half-life [11]: < 0.5 h |
| O=c1cc(CN(Cc2ccc(Cl)cc2)c2cnccn2)c2ccc(F)c(F)c2[nH]1 | 77 nM | 120 nM | 7100 nM | 90 | 2 | half-life [11]: < 0.333 h |
| O=c1cc(CN(c2cccc(Cl)c2)c2cccnn2)c2ccc(F)c(F)c2[nH]1 | 43 nM | 360 nM | 21000 nM | 500 | 8 | – |
| Cc1ccccc1CN(Cc1cc(=O)[nH]c2c(F)c(F)ccc12)c1cnccn1 | 10 nM | 46 nM | 13000 nM | 1300 | 5 | – |
| O=c1cc(CN(Cc2ccccn2)c2cnccn2)c2ccc(F)c(F)c2[nH]1 | 78 nM | 440 nM | 11000 nM | 140 | 6 | half-life [11]: < 0.333 h |
| Cc1cccnc1N(Cc1cc(=O)[nH]c2c(F)c(F)ccc12)c1cccc(Cl)c1 | 350 nM | – | > 30000 nM | > 85 | – | inhibition [5]: < 50% |
| O=c1cc(CN(Cc2ccccc2F)c2cnccn2)c2ccc(F)c(F)c2[nH]1 | 12 nM | 64 nM | 11000 nM | 900 | 5 | – |
| O=c1cc(CN(c2cccc(Cl)c2)c2ccncn2)c2ccc(F)c(F)c2[nH]1 | 14 nM | 150 nM | 13000 nM | 1000 | 11 | – |
| Cc1nccc(N(Cc2cc(=O)[nH]c3c(F)c(F)ccc23)c2cccc(Cl)c2)n1 | 33 nM | 213 nM | 7500 nM | 230 | 7 | Activity [12]: 55%; half-life [11]: 1.5 h |
| O=c1cc(CN(Cc2ccccc2)c2cnccn2)c2ccc(F)c(F)c2[nH]1 | 13 nM | 100 nM | 6400 nM | 500 | 8 | – |
| O=c1cc(CN(c2cccc(Cl)c2)c2ncccn2)c2ccc(F)c(F)c2[nH]1 | 13 nM | 69 nM | 5500 nM | 425 | 5 | – |
| O=c1cc(CN(c2cccc(Cl)c2)c2cnccn2)c2ccc(F)c(F)c2[nH]1 | 5 nM | 12 nM | 1500 nM | 300 | 2 | Activity [12]: 80%; AUC [7]: 120 ng·h/mL; bioavailability [13]: 3%; Cmax [14]: 45 ng/mL; clearance [15]: 34 mL/min/kg; Vd [8]: 1.7 L/kg; IC50 [9]: 5 nM; half-life [16]: 2.1 h; ED50 [10]: 3.6 mg/kg |
